Some test systems named below: MCF7; COLO 205; PC-3; UO-31; A549; UACC-62; HCC 2998; U-251; MDA-MB-231; NCI-H522; HCT-15; SN12C; SW-620; MDA-N; RPMI-8226; A498; TK-10; KM12; K562; OVCAR-5.
What all share (assay): NCI-60 cell line screen, 48 h

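Five compound concentrations were applied to cells in 96-well plates for 48 hours; endpoints were derived by simple linear interpolation of the resulting dose-response curve. GI50 = concentration required for 50% inhibition of growth.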 Active and inactive are the calls of the source. No stated cut-off is given here; in the data, active = GI50 up to about 1.1 µM and inactive = higher.

On to `CCOC(=O)C1(Cc2ccccc2)Cc2cc3c(cc2C1)CCC3`, for which the GI50 in the experiment with MCF7 was 23 µM (inactive); in the experiment with COLO 205 it was 19.3 µM (inactive); in the experiment with PC-3, 25.7 µM (inactive); in the experiment on UO-31 it was 40.9 µM (inactive); with A549, 36.8 µM (inactive); with UACC-62, 30.1 µM (inactive). For the same compound, the GI50 is 21.4 µM (inactive) in the experiment on HCC 2998; 30.8 µM (inactive) in the experiment with U-251; 30.4 µM (inactive) in the experiment on MDA-MB-231; 30.3 µM (inactive) in the experiment on NCI-H522; 27.7 µM with HCT-15; 33.3 µM (inactive) with SN12C. Besides, the GI50 in the experiment on SW-620 was 28.6 µM (inactive); in the experiment with MDA-N, 31.1 µM (inactive); in the experiment with RPMI-8226 it was 20.6 µM (inactive); in the experiment on A498, 49.4 µM (inactive); with TK-10, 92.7 µM (inactive); in the experiment on KM12, 31.9 µM (inactive). For the same compound, the GI50 with K562 was 22.5 µM (inactive); with OVCAR-5, 25.2 µM (inactive).

As for `Cc1c2cccc-2c(OCCO)cc2c1[nH]c1ccccc12`, the GI50 was 2.69 µM (inactive) with MCF7; 1.87 µM (inactive) in the experiment on COLO 205; 2.72 µM (inactive) with PC-3; 1.5 µM (inactive) with UO-31; 3.15 µM (inactive) with A549; 2.67 µM (inactive) in the experiment with UACC-62. Moreover, the GI50 with HCC 2998 was 3.15 µM (inactive); in the experiment on U-251, 1.89 µM (inactive); in the experiment on MDA-MB-231 it was 1.98 µM (inactive); in the experiment with NCI-H522, 1.83 µM (inactive); with HCT-15 it was 3.16 µM; in the experiment on SN12C, 2.09 µM (inactive). In addition, the GI50 is 3.52 µM (inactive) with SW-620; 2.76 µM (inactive) with MDA-N; 3 µM (inactive) with RPMI-8226; 11.8 µM (inactive) with A498; 4.06 µM (inactive) with TK-10; 2.58 µM (inactive) with KM12. Further, the results for the GI50 in the experiment with K562 and with OVCAR-5 were 3.1 µM (inactive) and 2.26 µM (inactive), respectively.

`COC(=O)NC1C(C)OC(OC2C/C=C(/C)C3C=CC4C(OC5CC(OC6CCC(OC7CC(O)C(OC8CCC(O)C(C)O8)C(C)O7)C(C)O6)C(OC(C)=O)C(C)O5)C(C)CC(C)C4C3(C)/C(O)=C3/C(=O)OC4(CC(C=O)=CC(O)C4/C=C\2C)C3=O)CC1(C)[N+](=O)[O-]` (stereo not given): the GI50 in the experiment with MCF7 is 0.94 µM (active); in the experiment with COLO 205, 1.1 µM (active); with PC-3 it was 1.57 µM (inactive); in the experiment on UO-31 it was 1.68 µM (inactive); with A549, 1.77 µM (inactive); with UACC-62, 0.552 µM (active). The GI50 with HCC 2998 is 0.951 µM (active); in the experiment on U-251, 0.342 µM (active); with MDA-MB-231, 0.755 µM (active); in the experiment with NCI-H522, 0.824 µM (active); in the experiment on HCT-15, 0.832 µM; with SN12C, 0.964 µM (active). Besides, the GI50 in the experiment on SW-620 is 0.989 µM (active); in the experiment on MDA-N, 0.661 µM (active); in the experiment on RPMI-8226, 0.957 µM (active); in the experiment with A498, 0.668 µM (active); with TK-10, 1.61 µM (inactive); with KM12 it was 0.809 µM (active). Moreover, the GI50 in the experiment with K562 was 0.885 µM (active); in the experiment on OVCAR-5, 1.93 µM (inactive).

`S=C(S)NCCN1CCNCC1`: the GI50 is 40 µM (inactive) in the experiment on MCF7; 18 µM (inactive) in the experiment with COLO 205; 34.3 µM (inactive) in the experiment with PC-3; 29.7 µM (inactive) with UO-31; > 100 µM (inactive) in the experiment on A549; 84.9 µM (inactive) with UACC-62. Also, the GI50 in the experiment with HCC 2998 was 22.7 µM (inactive); in the experiment with U-251, > 100 µM (inactive); in the experiment with MDA-MB-231, > 100 µM (inactive); with NCI-H522, 14.7 µM (inactive); in the experiment with HCT-15, 47.8 µM; in the experiment with SN12C, 49.2 µM (inactive). The GI50 with SW-620 is 20.7 µM (inactive); in the experiment with MDA-N, 37.2 µM (inactive); in the experiment with RPMI-8226, 18.6 µM (inactive); in the experiment on A498, > 100 µM (inactive); in the experiment on TK-10, 20.8 µM (inactive); with KM12, > 100 µM (inactive). For the same compound, the GI50 in the experiment on K562 is 24.4 µM (inactive); with OVCAR-5, > 100 µM (inactive).

The values above are taken from ChEMBL document CHEMBL1201862, “PubChem BioAssay data set” (2004).
